In US20250019385A1, “SPIROCYCLIC ANNULATED 2-AMINO-3-CYANO THIOPHENES AND DERIVATIVES FOR THE TREATMENT OF CANCER” (Boehringer Ingelheim International GmbH, priority 2023, published 2025) one finds IC50, solubility and fraction unbound data, which are given here for five compounds.

≈ marks a conversion by molar mass, not a printed value. Bounds are passed on as bounds.

KRAS (G12D)::SOS1 protein-protein interaction, sequence (P01116 other isoform, or with tags, fused parts or gaps G12D): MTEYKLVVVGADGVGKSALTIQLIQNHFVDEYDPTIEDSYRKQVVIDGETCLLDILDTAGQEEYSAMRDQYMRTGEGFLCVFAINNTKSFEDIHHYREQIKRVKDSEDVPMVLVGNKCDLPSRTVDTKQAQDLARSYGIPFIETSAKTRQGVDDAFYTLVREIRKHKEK

The target of the first data set is KRAS (G12D)::SOS1 protein-protein interaction (Homo sapiens (Human), UniProt P01116, G12D). As to the kind of experiment: KRAS::SOS1 AlphaScreen binding assay (KRAS G12D). The following applies: GDP. The method in brief:
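AlphaScreen assay with KRAS G12D (1-169, 6His/avi-tagged, 10 nM), GST-SOS1 564-1049 (5 nM) and GDP (10 μM) in PBS, 0.1% BSA, 0.05% Tween 20; compound up to 100 μM top concentration, eleven fivefold dilutions in duplicate. After 30 min, glutathione acceptor and streptavidin donor beads (10 μg/mL each) were added and signal read after a further 60 min at room temperature in the dark; IC50 from 4-parameter logistic fit.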
(In general: Bead proximity is the source of the signal in Alpha formats.)
Take `Cc1cn([C@@H]2CCOC2)c2nc(-c3onc4c3CCC[C@@]43CCCc4sc(N)c(C#N)c43)nc(O[C@@H](C)[C@@H]3CCCN3C)c12` [I-41]: the IC50 (in general, the concentration that inhibits the measured activity by half) was 3 nM.
Same read-out and setting: under `C[C@H](Oc1nc(-c2onc3c2CCC[C@@]32CCCc3sc(N)c(C#N)c32)nc2c1n(C)c(=O)n2[C@@H]1CCOC1)[C@@H]1[C@H](F)CCN1C` [I-4] stands 4 nM.
Still for that read-out and setting: under `C[C@H](Oc1nc(-c2onc3c2CCC[C@@]32CCCc3sc(N)c(C#N)c32)nc2c1cnn2[C@@H]1CCOC1)[C@@H]1CCCN1C` [I-43] stands 2 nM; under `CO[C@H]1C[C@H](n2c(=O)n(C)c3c(O[C@@H](C)[C@@H]4CCCN4C)nc(-c4onc5c4CCC[C@@]54CCCc5sc(N)c(C#N)c54)nc32)C1` [I-16], 12 nM.
On to `CO[C@H]1CCN(C)[C@@H]1[C@H](C)Oc1nc(-c2onc3c2CCC[C@@]32CCCc3sc(N)c(C#N)c32)nc2c1n(C)c(=O)n2[C@@H]1CCOC1` [I-23], for which the IC50 was 1 nM. Against the preceding compound, the IC50 is about 12-fold lower.

Test system in a further data set: not listed separately
Put plainly: Solubility measurement (DMSO solution precipitation method). It is filed as physicochemical. The following applies: aqueous buffer, kinetic from dmso stock, McIlvaine buffer pH 4.5, 24 h, read-out: solubility pH 4.5. In outline: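 A 10 mM DMSO stock was diluted to 250 μM final in McIlvaine buffer at pH 4.5 or 6.8, then shaken 24 h at ambient temperature. After filtering off precipitate, filtrate concentration was quantified by LC-UV against a fully dissolved reference in acetonitrile/water (1:1).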
With `Cc1cn([C@@H]2CCOC2)c2nc(-c3onc4c3CCC[C@@]43CCCc4sc(N)c(C#N)c43)nc(O[C@@H](C)[C@@H]3CCCN3C)c12` [I-41], the solubility (usually how much of the substance goes into solution per volume) at 24 h was above 137 µg/mL.
Same read-out and setting: under `C[C@H](Oc1nc(-c2onc3c2CCC[C@@]32CCCc3sc(N)c(C#N)c32)nc2c1n(C)c(=O)n2[C@@H]1CCOC1)[C@@H]1[C@H](F)CCN1C` [I-4] stands above 152 µg/mL; under `C[C@H](Oc1nc(-c2onc3c2CCC[C@@]32CCCc3sc(N)c(C#N)c32)nc2c1cnn2[C@@H]1CCOC1)[C@@H]1CCCN1C` [I-43], above 147 µg/mL; under `CO[C@H]1C[C@H](n2c(=O)n(C)c3c(O[C@@H](C)[C@@H]4CCCN4C)nc(-c4onc5c4CCC[C@@]54CCCc5sc(N)c(C#N)c54)nc32)C1` [I-16], above 154 µg/mL.
Take `CO[C@H]1CCN(C)[C@@H]1[C@H](C)Oc1nc(-c2onc3c2CCC[C@@]32CCCc3sc(N)c(C#N)c32)nc2c1n(C)c(=O)n2[C@@H]1CCOC1` [I-23]: the solubility at 24 h was above 157 µg/mL.

The data set is the same for the next values; noted with them: aqueous buffer, kinetic from dmso stock, McIlvaine buffer pH 6.8, 24 h, read-out: solubility pH 6.8.
As for `Cc1cn([C@@H]2CCOC2)c2nc(-c3onc4c3CCC[C@@]43CCCc4sc(N)c(C#N)c43)nc(O[C@@H](C)[C@@H]3CCCN3C)c12` [I-41], the solubility at 24 h came out at 32 µg/mL (≈ 52.1 µM).
The same measure, in the same setting: under `C[C@H](Oc1nc(-c2onc3c2CCC[C@@]32CCCc3sc(N)c(C#N)c32)nc2c1n(C)c(=O)n2[C@@H]1CCOC1)[C@@H]1[C@H](F)CCN1C` [I-4] stands 28 µg/mL (≈ 43.2 µM); under `C[C@H](Oc1nc(-c2onc3c2CCC[C@@]32CCCc3sc(N)c(C#N)c32)nc2c1cnn2[C@@H]1CCOC1)[C@@H]1CCCN1C` [I-43], 113 µg/mL (≈ 188 µM).
The same measure, in the same setting: under `CO[C@H]1C[C@H](n2c(=O)n(C)c3c(O[C@@H](C)[C@@H]4CCCN4C)nc(-c4onc5c4CCC[C@@]54CCCc5sc(N)c(C#N)c54)nc32)C1` [I-16] stands above 138 µg/mL; under `CO[C@H]1CCN(C)[C@@H]1[C@H](C)Oc1nc(-c2onc3c2CCC[C@@]32CCCc3sc(N)c(C#N)c32)nc2c1n(C)c(=O)n2[C@@H]1CCOC1` [I-23], 36 µg/mL (≈ 54.5 µM).

The subject of a further data set is NCI-H358 cells. Put plainly: NCI-H358 CTG proliferation assay (120 h) (NSCLC, G12C). It is filed as cell-based. The following applies: Homo sapiens. The method in brief: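 Cells seeded at 200 per well in RPMI-1640 with 10% FCS, left overnight, then treated with a logarithmic dose series in duplicate for 120 h. Viability measured by CellTiter-Glo luminescence as percent of DMSO controls; IC50 from four-parameter non-linear regression.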
In turn, `Cc1cn([C@@H]2CCOC2)c2nc(-c3onc4c3CCC[C@@]43CCCc4sc(N)c(C#N)c43)nc(O[C@@H](C)[C@@H]3CCCN3C)c12` [I-41] came in with a half-maximal inhibitory concentration (IC50) of 294 nM.
On the same count and under the same terms, under `C[C@H](Oc1nc(-c2onc3c2CCC[C@@]32CCCc3sc(N)c(C#N)c32)nc2c1n(C)c(=O)n2[C@@H]1CCOC1)[C@@H]1[C@H](F)CCN1C` [I-4] stands 107 nM; under `C[C@H](Oc1nc(-c2onc3c2CCC[C@@]32CCCc3sc(N)c(C#N)c32)nc2c1cnn2[C@@H]1CCOC1)[C@@H]1CCCN1C` [I-43], 71 nM; under `CO[C@H]1C[C@H](n2c(=O)n(C)c3c(O[C@@H](C)[C@@H]4CCCN4C)nc(-c4onc5c4CCC[C@@]54CCCc5sc(N)c(C#N)c54)nc32)C1` [I-16], 141 nM.
The same measure, in the same setting: under `CO[C@H]1CCN(C)[C@@H]1[C@H](C)Oc1nc(-c2onc3c2CCC[C@@]32CCCc3sc(N)c(C#N)c32)nc2c1n(C)c(=O)n2[C@@H]1CCOC1` [I-23] stands 4 nM.

Another data set concerns LOVO cells. Put plainly: LOVO CTG proliferation assay (120 h) (CRC, G13D). The conditions noted are these: Homo sapiens. The format is cell-based. The method in brief:
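Cells seeded at 1000/well in DMEM + 10% FCS, dosed next day with a logarithmic compound series, technical duplicates, for 120 h. Viability by CellTiter-Glo luminescence as percent of DMSO control; IC50 from four-parameter non-linear regression.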
Consider `Cc1cn([C@@H]2CCOC2)c2nc(-c3onc4c3CCC[C@@]43CCCc4sc(N)c(C#N)c43)nc(O[C@@H](C)[C@@H]3CCCN3C)c12` [I-41], for which the IC50 came out at 348 nM.
The compound `C[C@H](Oc1nc(-c2onc3c2CCC[C@@]32CCCc3sc(N)c(C#N)c32)nc2c1n(C)c(=O)n2[C@@H]1CCOC1)[C@@H]1[C@H](F)CCN1C` [I-4] displayed an IC50 of 181 nM.
As for `C[C@H](Oc1nc(-c2onc3c2CCC[C@@]32CCCc3sc(N)c(C#N)c32)nc2c1cnn2[C@@H]1CCOC1)[C@@H]1CCCN1C` [I-43], the IC50 came to 15 nM.
Same read-out and setting: under `CO[C@H]1C[C@H](n2c(=O)n(C)c3c(O[C@@H](C)[C@@H]4CCCN4C)nc(-c4onc5c4CCC[C@@]54CCCc5sc(N)c(C#N)c54)nc32)C1` [I-16] stands 404 nM; under `CO[C@H]1CCN(C)[C@@H]1[C@H](C)Oc1nc(-c2onc3c2CCC[C@@]32CCCc3sc(N)c(C#N)c32)nc2c1n(C)c(=O)n2[C@@H]1CCOC1` [I-23], 10 nM.

Test system in the next data set: not listed separately
Put plainly: Plasma protein binding assay (PPB), equilibrium dialysis. The conditions noted are these: bovine, 10% FCS in PBS, read-out: PPB 10% FCS (% fu). The format is in vitro ADME. The method in brief: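 Compound at 1-10 μmol/L in 10% FCS in PBS was dialysed against PBS (with or without dextran) across a 5-10 kg/mol cut-off membrane for 3-5 h at 37° C. Both chambers were protein-precipitated and compound was quantified by LC-MS. The unbound fraction was calculated from the serum-side and buffer-side concentrations.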
(In equilibrium dialysis free small molecules cross a membrane that holds back macromolecules.)
In the case of `Cc1cn([C@@H]2CCOC2)c2nc(-c3onc4c3CCC[C@@]43CCCc4sc(N)c(C#N)c43)nc(O[C@@H](C)[C@@H]3CCCN3C)c12` [I-41], the fraction unbound is 0.35.
Take `C[C@H](Oc1nc(-c2onc3c2CCC[C@@]32CCCc3sc(N)c(C#N)c32)nc2c1n(C)c(=O)n2[C@@H]1CCOC1)[C@@H]1[C@H](F)CCN1C` [I-4]: the fraction unbound was 0.13.
Still for that read-out and setting: under `C[C@H](Oc1nc(-c2onc3c2CCC[C@@]32CCCc3sc(N)c(C#N)c32)nc2c1cnn2[C@@H]1CCOC1)[C@@H]1CCCN1C` [I-43] stands 0.11; under `CO[C@H]1C[C@H](n2c(=O)n(C)c3c(O[C@@H](C)[C@@H]4CCCN4C)nc(-c4onc5c4CCC[C@@]54CCCc5sc(N)c(C#N)c54)nc32)C1` [I-16], 0.13.
The same measure, in the same setting: under `CO[C@H]1CCN(C)[C@@H]1[C@H](C)Oc1nc(-c2onc3c2CCC[C@@]32CCCc3sc(N)c(C#N)c32)nc2c1n(C)c(=O)n2[C@@H]1CCOC1` [I-23] stands 0.22.
